Values quoted from earlier work, collected in US20120157536A1, “COMPOSITION FOR TRANSDERMAL ADMINISTRATION OF NON-STEROIDAL ANTI-FLAMMATORY DRUG” (Polytherapeutics, Inc., priority 2010, published 2012).

## O=C(O)Cc1ccccc1Nc1c(Cl)cccc1Cl [Diclofenac, 2-(2,6-dichloro-anilino)-benzeneacetic acid]
Goodman & Gilman
  Diclofenac Clearance, Cl: 4.2 mL/min/kg
Nishihata et al. 1988
  Minimum effective diclofenac blood concentration: 50 ng/mL
